Results published in patent US20100323975A1, “THERAPEUTIC AGENT FOR CEREBRAL ISCHEMIC INJURY” (OTSUKA PHARMACEUTICAL FACTORY, INC., priority 2007, published 2010).
“Also recorded” adds a separate entry of the source. Peptide text beside a SMILES is read from it.

What was measured:
[1] = test system: model of middle cerebral artery occlusion and subsequent reperfusion (cerebral ischemic injury); experiment: Infarction rate in model of middle cerebral artery occlusion and subsequent reperfusion (Test Example 1); type: in vivo, Wistar male rats; details: for Infarction rate (mean value): 90 min occlusion, day after administration, control 49%
Text: Approximately 9-week-old Wistar male rats were used. The method of Koizumi et al. (Nou-socchu (Cerebral Apoplexy), Vol. 8, pp. 1-8, 1986) was applied to the rats under halothane anesthesia, so as to produce models of middle cerebral artery occlusion and subsequent reperfusion. Specifically, each rat was fixed under natural aspiration conditions under anesthesia with gas (initial anesthesia: performed in room air containing 3% halothane; continuous anesthesia: performed in room air containing 1% halothane), and the neck of the rat was then subjected to median incision. Subsequently, the left common carotid and external carotid artery was exfoliated from surrounding connective tissues, and it was then ligated with a ligature. After that, the internal carotid artery was exfoliated from surrounding connective tissues, and it was then ligated with a ligature. Further, using scissors, a hole was made on a site close to the branch point between the left external carotid artery and the internal carotid artery, and a silicon-coated portion of a nylon plug was then inserted into the internal carotid artery at a depth of 15 to 16 mm. Thereby, the tip of the inserted nylon plug exceeded the middle cerebral artery portion and reached the anterior cerebral artery, so that the inlet of the middle cerebral artery was occluded with the silicon-coated portion of the plug. […]
On the day after the administration of the agent, a test animal was anesthetized with ether, and the brain was then excised. […] A slice of brain section was placed, with a surface to be measured down, into each well of a 12-well plate, which had been filled with a 2% TTC solution prepared by dissolving 2,3,5-triphenyltetrazolium chloride (TTC) in a phosphate buffered saline. […] Thus, the area of an infarct on the measurement surface of each brain section (the site in which brain tissue was considered to be necrosed) was measured, and the obtained value was then multiplied by the thickness of the brain section, so as to obtain the volume of an infarct in each brain section. […]

[2] = Time course of L-histidine concentration in blood after administration of different dipeptides (Test Example 4); type: in vivo, Wister male rats
Method: 7- to 8-week-old Wister male rats were divided into the following 3 administration groups.
(§1) 1.00 g of L-alanyl-L-histidine (manufactured by Bachem) was dissolved in water for injection purpose to prepare 13.70 mL (total amount) of solution. This solution was subjected to sterilization filtration, and it was then poured into syringes (10 mL each per syringe), so as to produce a therapeutic agent for cerebral ischemic injury having a dosage form as an injection. The concentration of L-alanyl-L-histidine in this therapeutic agent for cerebral ischemic injury was 0.32 mol/L (L-histidine concentration: 5% (W/V)).
as §1, with “L-histidyl-L-glycine” for “L-alanyl-L-histidine”, “14.60” for “13.70”
as §1, with “L-histidyl-L-glutamic acid” for “L-alanyl-L-histidine”, “10.90” for “13.70”

[3] = L-histidine concentration in blood after intravenous administration (Test Example 2)
Method: (§2) 7- to 9-week-old Wistar male rats were divided into the following 8 administration groups. The number of rats in each group was set at 4. […]
The therapeutic agent for cerebral ischemic injury obtained in Production Example 2 was diluted by a factor of 2, and the thus diluted solution was administered into the caudal vein of each rat at a rate of 60 mL/kg/hr for 10 minutes. […]
(§3) L-histidine was added to water for injection purpose, and acetic acid was further added thereto, so as to dissolve L-histidine in the solution. The obtained solution was adjusted to pH 6.0 with a sodium hydroxide aqueous solution. The obtained injection solution (L-histidine concentration: 10% (W/V)) was administered into the caudal vein of each rat at a rate of 60 mL/kg/hr for 10 minutes.
as §3, with “citric” for “acetic”, “minutes. […]” for “minutes.”
(§4) After administration of the agent, blood was collected from each rat at regular time intervals, and the concentration of L-histidine (monomer) in blood was then measured using a high speed amino acid analyzer L-8800A (manufactured by Hitachi High-Technologies Corporation). […] In addition, the body temperature, blood pressure, and cardiac rate of each test animal were measured during the period from before administration of the agent until after the administration of the agent, and at the same time, the appearance of each test animal was observed, so as to examine the presence or absence of side effects caused by administration of the agent. The L-histidine concentration in blood was measured 15 minutes after the administration of the agent, and the presence or absence of side effects caused by such administration of the agent was examined.

[4] = Solubility in water at 25° C.; type: physicochemical
Wistar male rats = experiment: Identification of side effects after intravenous administration (Test Example 2); details: for Cessation of breathing, number of cases: 4 rats per group
Method: as §2
L-histidine hydrochloride was dissolved in water for injection purpose, and the obtained solution was then adjusted to pH 6.0 with a sodium hydroxide aqueous solution. The obtained injection solution (L-histidine concentration: 10% (W/V)) was administered into the caudal vein of each rat at a rate of 60 mL/kg/hr for 10 minutes.
as §3
as §3, with “citric” for “acetic”
β-alanyl-L-histidine was added to water for injection purpose, and the obtained solution was then adjusted to pH 7 with hydrochloric acid. The obtained injection solution (L-histidine concentration: 10% (W/V)) was administered into the caudal vein of each rat at a rate of 60 mL/kg/hr for 10 minutes. […]
as §4

[5] = male, Wistar, rat, in vivo, 0 min
[6] = male, Wistar, rat, in vivo, 15 min
[7] = male, Wistar, rat, in vivo, 30 min
[8] = male, Wistar, rat, in vivo, 60 min
[9] = male, Wistar, rat, in vivo, 120 min
[10] = male, Wistar, rat, in vivo, -10 min
[11] = 5th administration group: dissolved with acetic acid, pH 6.0, L-histidine 10% (W/V), caudal vein 60 mL/kg/hr for 10 minutes
[12] = 6th administration group: dissolved with citric acid, pH 6.0, L-histidine 10% (W/V), caudal vein 60 mL/kg/hr for 10 minutes

SMILES: CC1=NN(c2ccccc2)C(=O)C1 [Edaravone, 3-methyl-1-phenyl-2-pyrazoline-5-one]
- Infarction rate (mean value) ([1]; Comparison group: bolus injection 3 mg/kg immediately after and 30 minutes after reperfusion): 38%

SMILES: C[C@H](N)C(=O)N[C@@H](Cc1c[nH]cn1)C(=O)O [L-alanyl-L-histidine] (H-Ala-His-OH)
- L-histidine concentration in blood [2, 5]: 7588.27 nmol/mL
- L-histidine concentration in blood immediately after completion of administration, relative to second administration group (L-histidyl-L-glycine) [2, 5]: approximately 2 times
- L-histidine concentration in blood immediately after completion of administration, relative to third administration group (L-histidyl-L-glutamic acid) [2, 5]: approximately 5 times
- L-histidine concentration in blood [2, 6]: 3802.80 nmol/mL
- L-histidine concentration in blood [2, 7]: 2198.93 nmol/mL
- L-histidine concentration in blood [2, 8]: 770.17 nmol/mL
- L-histidine concentration in blood [2, 9]: 268.77 nmol/mL
- L-histidine concentration in blood [2, 10]: 76.67 nmol/mL
- Factor of increase of L-histidine concentration in blood when the concentration administered was increased by a factor of 2 [3, 6]: 3-3.5
- solubility [4]: ≥ 3500 mM
- Cerebral ischemic injury during cerebral ischemia-reperfusion compared with control group and comparison group ([1]; Experiment group, Production Example 1 injection): remarkably suppressed
- Infarction rate (mean value) ([1]; Experiment group: Production Example 1 injection (1.29 mol/L), caudal vein 60 mL/kg/hr for 10 minutes, immediately after and 6 hours after reperfusion): 20%
- Side effects (Wistar male rats; rat, in vivo): None

SMILES: Cl.N[C@@H](Cc1c[nH]cn1)C(=O)O [L-histidine hydrochloride]
- Side effects (Wistar male rats; 4th (pH 6.0) / 7th (pH 7) administration group: L-histidine concentration 10% (W/V), caudal vein 60 mL/kg/hr for 10 minutes, hydrochloride): Decrease in blood pressure; also recorded: Cessation of breathing
- Cessation of breathing, number of cases (Wistar male rats; 4th group: during administration of agent, 7th group: immediately after administration, L-histidine 10% (W/V)): agent in 2 cases

SMILES: N[C@@H](Cc1c[nH]cn1)C(=O)O [L-histidine]
- L-histidine concentration in blood (mean value) [3, 11]: Not be measurable
- L-histidine concentration in blood (mean value) [3, 12]: Not be measurable
- Side effects (Wistar male rats; [11]): Decrease in blood pressure; also recorded: Cessation of breathing
- Cessation of breathing, number of cases (Wistar male rats; 5th group (acetic acid, pH 6.0, 10% (W/V)): immediately after administration of agent): administration of agent in 4 cases
- Side effects (Wistar male rats; [12]): Decrease in blood pressure; also recorded: Cessation of breathing
- Cessation of breathing, number of cases (Wistar male rats; 6th group (citric acid, pH 6.0, 10% (W/V)): during administration of agent): agent in 4 cases

SMILES: N[C@@H](Cc1c[nH]cn1)C(=O)N[C@@H](CCC(=O)O)C(=O)O [L-histidyl-L-glutamic acid] (H-His-Glu-OH)
- L-histidine concentration in blood [2, 5]: 1546.15 nmol/mL
- L-histidine concentration in blood [2, 6]: 2090.10 nmol/mL
- L-histidine concentration in blood [2, 7]: 1827.15 nmol/mL
- L-histidine concentration in blood [2, 8]: 926.80 nmol/mL
- L-histidine concentration in blood [2, 9]: 233.20 nmol/mL
- L-histidine concentration in blood [2, 10]: 78.40 nmol/mL

SMILES: N[C@@H](Cc1cnc[nH]1)C(=O)NCC(=O)O [L-histidyl-L-glycine] (H-His-Gly-OH)
- L-histidine concentration in blood ([2]; 0 min after administration, 0.32 mol/L, caudal vein 60 mL/kg/hr for 10 minutes): 3995.57 nmol/mL
- L-histidine concentration in blood ([2]; 15 min after administration, 0.32 mol/L, caudal vein 60 mL/kg/hr for 10 minutes): 3798.87 nmol/mL
- L-histidine concentration in blood ([2]; 30 min after administration, 0.32 mol/L, caudal vein 60 mL/kg/hr for 10 minutes): 2019.47 nmol/mL
- L-histidine concentration in blood ([2]; 60 min after administration, 0.32 mol/L, caudal vein 60 mL/kg/hr for 10 minutes): 833.93 nmol/mL
- L-histidine concentration in blood ([2]; 120 min after administration, 0.32 mol/L, caudal vein 60 mL/kg/hr for 10 minutes): 244.03 nmol/mL
- L-histidine concentration in blood ([2]; −10 min (before administration), 0.32 mol/L, caudal vein 60 mL/kg/hr for 10 minutes): 74.73 nmol/mL

SMILES: CC(=O)N[C@@H](Cc1c[nH]cn1)C(=O)O [N-acetyl-L-histidine]
- L-histidine concentration in blood (mean value) ([3]; male, Wistar, rat, in vivo, 15 min, pH 7): 0.25 mM
- Side effects (Wistar male rats; rat, in vivo, pH 7): None

SMILES: NCCC(=O)N[C@@H](Cc1cnc[nH]1)C(=O)O [β-alanyl-L-histidine]
- L-histidine concentration in blood (mean value) [3, 6]: 0.30 mM
- Side effects (Wistar male rats; rat, in vivo): Cessation of breathing
